From article PMC10763615, “Identification and engineering of potent cyclic peptides with selective or promiscuous binding through biochemical profiling and bioinformatic data analysis” (RSC Chemical Biology, 2023)
Read-outs that look alike come from different tables or passages of the source. Positions of bridges follow the written chain, without caps; N, C: chain ends. Residues, ends and D or L forms follow the SMILES beside them.

Key:
Type in all cases: binding
FGF-R1C ECD = target: T1, FGF-R1C ECD (Homo sapiens, UniProt P11362); assay: biochemical; design: DNA constructs for the extracellular domain (ECD) of human FGF-; HPC4 (C); made in house; host or cells: HEK 293-6E
T1 sequence (P11362 22-376 limits assumed): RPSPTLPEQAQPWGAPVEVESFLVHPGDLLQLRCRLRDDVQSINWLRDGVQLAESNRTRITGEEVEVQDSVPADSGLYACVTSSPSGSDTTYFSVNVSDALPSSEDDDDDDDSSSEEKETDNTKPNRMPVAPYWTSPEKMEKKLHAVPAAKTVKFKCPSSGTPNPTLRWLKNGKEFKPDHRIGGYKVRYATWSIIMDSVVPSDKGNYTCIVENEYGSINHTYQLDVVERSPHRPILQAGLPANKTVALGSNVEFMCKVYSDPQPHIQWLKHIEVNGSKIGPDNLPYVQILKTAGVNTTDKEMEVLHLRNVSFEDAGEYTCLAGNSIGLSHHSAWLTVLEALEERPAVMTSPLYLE
In short: (§1)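 Biotinylated FGF-R ECD on streptavidin biosensors was dipped into ~1 μM crude peptide in PBS pH7.4 with 0.05% Tween-20 and 0.01% BSA for association, then into buffer for dissociation, and followed by BLI. Fitted KD values were adjusted for peptide concentration measured by UPLC-CAD.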

FGF-R3C ECD = target: T2, FGF-R3C ECD (Homo sapiens, UniProt P22607); assay: biochemical; design: DNA constructs for the extracellular domain (ECD) of human FGF-; HPC4 (C); made in house; host or cells: HEK 293-6E
T2 sequence (P22607 23-375 limits assumed): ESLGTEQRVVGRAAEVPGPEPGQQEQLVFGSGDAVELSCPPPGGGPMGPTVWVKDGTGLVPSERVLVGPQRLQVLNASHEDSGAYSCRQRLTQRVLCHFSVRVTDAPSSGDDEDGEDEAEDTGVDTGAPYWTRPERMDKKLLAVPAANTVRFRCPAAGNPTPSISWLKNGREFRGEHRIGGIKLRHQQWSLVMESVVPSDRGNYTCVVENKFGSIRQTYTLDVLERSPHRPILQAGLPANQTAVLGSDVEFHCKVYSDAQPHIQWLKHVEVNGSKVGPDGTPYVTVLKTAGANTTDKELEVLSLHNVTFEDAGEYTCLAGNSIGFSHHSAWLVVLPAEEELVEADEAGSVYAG
In short: as §1

FGF-R4 ECD = target: T3, FGF-R4 ECD (Homo sapiens, UniProt P22455); assay: single concentration BLI of crude peptides; conditions: read-out: KD (4)
T3 construct: DNA constructs for the extracellular domain (ECD) of human FGF-; HPC4 (C); made in house; host or cells: HEK 293-6E
T3 sequence (P22455 22-369 limits assumed): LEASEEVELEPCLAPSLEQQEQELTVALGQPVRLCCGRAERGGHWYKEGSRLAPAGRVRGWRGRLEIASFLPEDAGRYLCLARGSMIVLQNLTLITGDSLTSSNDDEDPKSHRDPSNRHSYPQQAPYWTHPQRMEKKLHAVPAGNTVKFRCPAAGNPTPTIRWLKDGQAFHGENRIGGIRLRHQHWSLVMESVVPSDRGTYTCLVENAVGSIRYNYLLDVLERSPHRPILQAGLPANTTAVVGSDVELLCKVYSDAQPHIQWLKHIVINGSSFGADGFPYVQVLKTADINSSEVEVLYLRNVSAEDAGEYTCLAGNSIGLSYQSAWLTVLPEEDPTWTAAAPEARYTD
In short: as §1

[1] = crude T18 selection 1 (1:1:1) peptides, single concentration BLI (Table S4)
[2] = crude NNK peptides, single concentration BLI (Table S3)

SMILES	Kd (FGF-R1C ECD) [µM]	Kd (FGF-R3C ECD) [µM]	Kd (FGF-R4 ECD; [1]) [µM]	Kd (FGF-R4 ECD; [2]) [µM]
CSCC[C@H](NC(C)=O)C(=O)N[C@H]1CSSC[C@@H](C(=O)NCC(=O)N[C@@H](CO)C(=O)NCC(=O)N[C@@H](CO)C(=O)N[C@@H](CC(=O)O)C(=O)N[C@@H](Cc2ccc(O)cc2)C(=O)N[C@@H](CCCCN)C(=O)N[C@@H](CC(=O)O)C(=O)N[C@@H](CC(=O)O)C(=O)N[C@@H](CC(=O)O)C(=O)N[C@@H](CC(=O)O)C(=O)N[C@@H](CCCCN)C(N)=O)NC(=O)[C@H](Cc2ccc(O)cc2)NC(=O)[C@H](C(C)C)NC(=O)[C@H](Cc2ccc(O)cc2)NC(=O)[C@H](Cc2c[nH]c3ccccc23)NC(=O)[C@H](CO)NC(=O)[C@H](CCCCN)NC(=O)[C@H](Cc2c[nH]cn2)NC(=O)[C@H](Cc2ccc(O)cc2)NC(=O)[C@H](Cc2ccc(O)cc2)NC(=O)[C@H](Cc2ccccc2)NC(=O)[C@H](Cc2c[nH]c3ccccc23)NC(=O)[C@H](CCC(=O)O)NC1=O (Ac-MCEWFYYHKSWYVYCGSGSDYKDDDDK-NH2; disulfide 2-15)	0.191	> 10	> 10	–
CC[C@H](C)[C@@H]1NC(=O)[C@H](CCCCN)NC(=O)[C@H](Cc2ccc(O)cc2)NC(=O)[C@H](CC(C)C)NC(=O)[C@H](CC(C)C)NC(=O)[C@H](C)NC(=O)[C@H](Cc2ccccc2)NC(=O)[C@@H](NC(=O)[C@H](CCSC)NC(C)=O)CSSC[C@@H](C(=O)NCC(=O)N[C@@H](CO)C(=O)NCC(=O)N[C@@H](CO)C(=O)N[C@@H](CC(=O)O)C(=O)N[C@@H](Cc2ccc(O)cc2)C(=O)N[C@@H](CCCCN)C(=O)N[C@@H](CC(=O)O)C(=O)N[C@@H](CC(=O)O)C(=O)N[C@@H](CC(=O)O)C(=O)N[C@@H](CC(=O)O)C(=O)N[C@@H](CCCCN)C(N)=O)NC(=O)[C@H](CCCNC(=N)N)NC(=O)[C@H](CO)NC(=O)[C@H](CC(C)C)NC1=O (Ac-MCFALLYKILSRCGSGSDYKDDDDK-NH2; disulfide 2-13)	> 10	> 10	–	> 10
CSCC[C@H](NC(C)=O)C(=O)N[C@H]1CSSC[C@@H](C(=O)NCC(=O)N[C@@H](CO)C(=O)NCC(=O)N[C@@H](CO)C(=O)N[C@@H](CC(=O)O)C(=O)N[C@@H](Cc2ccc(O)cc2)C(=O)N[C@@H](CCCCN)C(=O)N[C@@H](CC(=O)O)C(=O)N[C@@H](CC(=O)O)C(=O)N[C@@H](CC(=O)O)C(=O)N[C@@H](CC(=O)O)C(=O)N[C@@H](CCCCN)C(N)=O)NC(=O)[C@H](Cc2ccc(O)cc2)NC(=O)[C@H](C(C)C)NC(=O)[C@H](Cc2ccccc2)NC(=O)[C@H](C(C)C)NC(=O)[C@H](CCCCN)NC(=O)[C@H]([C@@H](C)O)NC(=O)[C@H](CCCCN)NC(=O)[C@H](Cc2c[nH]cn2)NC(=O)[C@H](CC(=O)O)NC(=O)[C@H](CC(C)C)NC(=O)[C@H](Cc2ccccc2)NC1=O (Ac-MCFLDHKTKVFVYCGSGSDYKDDDDK-NH2; disulfide 2-14)	> 10	> 10	0.13	–
CC[C@H](C)[C@@H]1NC(=O)[C@@H]2CCCN2C(=O)[C@H](Cc2c[nH]c3ccccc23)NC(=O)[C@H](Cc2ccccc2)NC(=O)[C@@H](NC(=O)[C@H](CCSC)NC(C)=O)CSSC[C@@H](C(=O)NCC(=O)N[C@@H](CO)C(=O)NCC(=O)N[C@@H](CO)C(=O)N[C@@H](CC(=O)O)C(=O)N[C@@H](Cc2ccc(O)cc2)C(=O)N[C@@H](CCCCN)C(=O)N[C@@H](CC(=O)O)C(=O)N[C@@H](CC(=O)O)C(=O)N[C@@H](CC(=O)O)C(=O)N[C@@H](CC(=O)O)C(=O)N[C@@H](CCCCN)C(N)=O)NC(=O)[C@H](C)NC(=O)[C@H](CCSC)NC(=O)[C@H](Cc2ccccc2)NC(=O)[C@H](CCCCN)NC(=O)[C@H](Cc2ccc(O)cc2)NC(=O)[C@H](Cc2c[nH]c3ccccc23)NC1=O (Ac-MCFWPIWYKFMACGSGSDYKDDDDK-NH2; disulfide 2-13)	> 10	> 10	–	> 10
CSCC[C@H](NC(C)=O)C(=O)N[C@H]1CSSC[C@@H](C(=O)NCC(=O)N[C@@H](CO)C(=O)NCC(=O)N[C@@H](CO)C(=O)N[C@@H](CC(=O)O)C(=O)N[C@@H](Cc2ccc(O)cc2)C(=O)N[C@@H](CCCCN)C(=O)N[C@@H](CC(=O)O)C(=O)N[C@@H](CC(=O)O)C(=O)N[C@@H](CC(=O)O)C(=O)N[C@@H](CC(=O)O)C(=O)N[C@@H](CCCCN)C(N)=O)NC(=O)[C@H](C)NC(=O)[C@H](CC(C)C)NC(=O)[C@H](CC(C)C)NC(=O)[C@H](C)NC(=O)[C@@H]2CCCN2C(=O)[C@H](Cc2ccccc2)NC(=O)[C@H](Cc2ccccc2)NC(=O)[C@H](CCCNC(=N)N)NC(=O)[C@H](Cc2c[nH]c3ccccc23)NC(=O)[C@H](Cc2ccccc2)NC1=O (Ac-MCFWRFFPALLACGSGSDYKDDDDK-NH2; disulfide 2-13)	> 10	> 10	–	> 10
CC[C@H](C)[C@@H]1NC(=O)[C@H](CO)NC(=O)[C@H](Cc2ccccc2)NC(=O)[C@H](Cc2c[nH]cn2)NC(=O)CNC(=O)[C@@H](NC(=O)[C@H](CCSC)NC(C)=O)CSSC[C@@H](C(=O)NCC(=O)N[C@@H](CO)C(=O)NCC(=O)N[C@@H](CO)C(=O)N[C@@H](CC(=O)O)C(=O)N[C@@H](Cc2ccc(O)cc2)C(=O)N[C@@H](CCCCN)C(=O)N[C@@H](CC(=O)O)C(=O)N[C@@H](CC(=O)O)C(=O)N[C@@H](CC(=O)O)C(=O)N[C@@H](CC(=O)O)C(=O)N[C@@H](CCCCN)C(N)=O)NC(=O)[C@H](Cc2c[nH]c3ccccc23)NC(=O)[C@H](CCCCN)NC(=O)[C@H](Cc2ccccc2)NC(=O)[C@H](Cc2c[nH]c3ccccc23)NC(=O)[C@H]([C@@H](C)O)NC1=O (Ac-MCGHFSITWFKWCGSGSDYKDDDDK-NH2; disulfide 2-13)	> 10	> 10	–	> 10
CSCC[C@H](NC(C)=O)C(=O)N[C@H]1CSSC[C@@H](C(=O)NCC(=O)N[C@@H](CO)C(=O)NCC(=O)N[C@@H](CO)C(=O)N[C@@H](CC(=O)O)C(=O)N[C@@H](Cc2ccc(O)cc2)C(=O)N[C@@H](CCCCN)C(=O)N[C@@H](CC(=O)O)C(=O)N[C@@H](CC(=O)O)C(=O)N[C@@H](CC(=O)O)C(=O)N[C@@H](CC(=O)O)C(=O)N[C@@H](CCCCN)C(N)=O)NC(=O)[C@H](C(C)C)NC(=O)[C@H](CCCNC(=N)N)NC(=O)[C@H](CCSC)NC(=O)[C@H](C(C)C)NC(=O)[C@H](CCCCN)NC(=O)[C@H](Cc2ccc(O)cc2)NC(=O)[C@H](CC(C)C)NC(=O)[C@H](CC(C)C)NC(=O)[C@H](C(C)C)NC(=O)CNC1=O (Ac-MCGVLLYKVMRVCGSGSDYKDDDDK-NH2; disulfide 2-13)	> 10	> 10	–	0.124
CC[C@H](C)[C@@H]1NC(=O)[C@H](Cc2c[nH]cn2)NC(=O)[C@@H](NC(=O)[C@H](CCSC)NC(C)=O)CSSC[C@@H](C(=O)NCC(=O)N[C@@H](CO)C(=O)NCC(=O)N[C@@H](CO)C(=O)N[C@@H](CCC(=O)O)C(=O)N[C@@H](CCC(=O)O)C(=O)NCC(=O)N[C@@H](CO)C(=O)NCC(=O)N[C@@H](CO)C(=O)N[C@@H](CC(=O)O)C(=O)N[C@@H](Cc2ccc(O)cc2)C(=O)N[C@@H](CCCCN)C(=O)N[C@@H](CC(=O)O)C(=O)N[C@@H](CC(=O)O)C(=O)N[C@@H](CC(=O)O)C(=O)N[C@@H](CC(=O)O)C(=O)N[C@@H](CCCCN)C(N)=O)NC(=O)[C@H](Cc2c[nH]cn2)NC(=O)[C@H](CCCCN)NC(=O)[C@H](CCCNC(=N)N)NC(=O)[C@H](C(C)C)NC(=O)[C@H](CC(C)C)NC(=O)[C@H](CCC(N)=O)NC(=O)[C@H](Cc2c[nH]c3ccccc23)NC(=O)[C@H](Cc2ccc(O)cc2)NC(=O)[C@H](CCCNC(=N)N)NC1=O (Ac-MCHIRYWQLVRKHCGSGSEEGSGSDYKDDDDK-NH2; disulfide 2-14)	> 10	> 10	0.01	–
